# Data reported in ChEMBL document CHEMBL4813981, “Synthesis and in vitro antibacterial activity of new aminothiazole-oximepiperidone cephalosporins” (2021).
# What was measured:
# Escherichia coli [1] = experiment: Antibacterial activity against Escherichia coli 15-3 overexpressing extended spectrum beta-lactamases assessed as reduction in bacterial growth; assay type: functional
# Escherichia coli [2] = experiment: Antibacterial activity against Escherichia coli 15-4 overexpressing extended spectrum beta-lactamases assessed as reduction in bacterial growth; assay type: functional
# Klebsiella pneumoniae [3] = experiment: Antibacterial activity against Klebsiella pneumoniae ATCC 700603 assessed as reduction in bacterial growth; assay type: functional
# Klebsiella pneumoniae [4] = experiment: Antibacterial activity against Multidrug resistant Klebsiella pneumoniae KR 15-3 assessed as reduction in bacterial growth; assay type: functional
# Acinetobacter baumannii [5] = experiment: Antibacterial activity against Multidrug resistant Acinetobacter baumannii AR 15-2 assessed as reduction in bacterial growth; assay type: functional
# Enterococcus faecalis = experiment: Antibacterial activity against Enterococcus faecalis ATCC 51299 assessed as reduction in bacterial growth in the presence of Avibactam; assay type: functional
# Escherichia coli [6] = experiment: Antibacterial activity against Escherichia coli NCTC 13353 assessed as reduction in bacterial growth in the presence of Avibactam; assay type: functional
# Klebsiella pneumoniae [7] = experiment: Antibacterial activity against Klebsiella pneumoniae ATCC 700603 assessed as reduction in bacterial growth in the presence of Avibactam; assay type: functional
# Klebsiella pneumoniae [8] = experiment: Antibacterial activity against Multidrug resistant Klebsiella pneumoniae KR 15-2 assessed as reduction in bacterial growth in the presence of Avibactam; assay type: functional
# Acinetobacter baumannii [9] = experiment: Antibacterial activity against Acinetobacter baumannii NCTC 13304 assessed as reduction in bacterial growth in the presence of Avibactam; assay type: functional
# Escherichia coli [10] = experiment: Antibacterial activity against ESBLs negative Carbapenem-sensitive Escherichia coli 17-19 assessed as reduction in bacterial growth; assay type: functional
# Escherichia coli [11] = experiment: Antibacterial activity against ESBLs negative Carbapenem-sensitive Escherichia coli 17-20 assessed as reduction in bacterial growth; assay type: functional
# Pseudomonas aeruginosa [12] = experiment: Antibacterial activity against Carbapenem- sensitive Pseudomonas aeruginosa 17-9 assessed as reduction in bacterial growth; assay type: functional
# Acinetobacter baumannii [13] = experiment: Antibacterial activity against Carbapenem- resistant Acinetobacter baumannii 17-5 assessed as reduction in bacterial growth in the presence of Avibactam; assay type: functional
# Acinetobacter baumannii [14] = experiment: Antibacterial activity against Carbapenem- resistant Acinetobacter baumannii 17-9 assessed as reduction in bacterial growth in the presence of Avibactam; assay type: functional
# Acinetobacter baumannii [15] = experiment: Antibacterial activity against Carbapenem- resistant Acinetobacter baumannii 17-13 assessed as reduction in bacterial growth in the presence of Avibactam; assay type: functional
# Klebsiella pneumoniae [16] = experiment: Antibacterial activity against Carbapenem- resistant Klebsiella pneumoniae KR 15-4 assessed as reduction in bacterial growth in the presence of Avibactam; assay type: functional
# Klebsiella pneumoniae [17] = experiment: Antibacterial activity against Carbapenem- resistant Klebsiella pneumoniae KR 15-7 assessed as reduction in bacterial growth in the presence of Avibactam; assay type: functional
# Klebsiella pneumoniae [18] = experiment: Antibacterial activity against Carbapenem- resistant Klebsiella pneumoniae KR 15-8 assessed as reduction in bacterial growth in the presence of Avibactam; assay type: functional
# Klebsiella pneumoniae [19] = experiment: Antibacterial activity against Carbapenem- resistant Klebsiella pneumoniae KR 15-12 assessed as reduction in bacterial growth in the presence of Avibactam; assay type: functional
# Klebsiella pneumoniae [20] = experiment: Antibacterial activity against Carbapenem- resistant Klebsiella pneumoniae KR 15-13 assessed as reduction in bacterial growth in the presence of Avibactam; assay type: functional
# Pseudomonas aeruginosa [21] = experiment: Antibacterial activity against Carbapenem- resistant Pseudomonas aeruginosa 17-8 assessed as reduction in bacterial growth in the presence of Avibactam; assay type: functional
# Klebsiella pneumoniae [22] = experiment: Antibacterial activity against ESBLs positive Carbapenem-sensitive Klebsiella pneumoniae 17-3 assessed as reduction in bacterial growth in the presence of Avibactam; assay type: functional
# Klebsiella pneumoniae [23] = experiment: Antibacterial activity against ESBLs positive Carbapenem-sensitive Klebsiella pneumoniae 17-6 assessed as reduction in bacterial growth in the presence of Avibactam; assay type: functional
# Klebsiella pneumoniae [24] = experiment: Antibacterial activity against ESBLs positive Carbapenem-sensitive Klebsiella pneumoniae 17-9 assessed as reduction in bacterial growth in the presence of Avibactam; assay type: functional
# Klebsiella pneumoniae [25] = experiment: Antibacterial activity against ESBLs positive Carbapenem-sensitive Klebsiella pneumoniae 17-14 assessed as reduction in bacterial growth in the presence of Avibactam; assay type: functional
# Klebsiella pneumoniae [26] = experiment: Antibacterial activity against ESBLs positive Carbapenem-sensitive Klebsiella pneumoniae 17-15 assessed as reduction in bacterial growth in the presence of Avibactam; assay type: functional
# Klebsiella pneumoniae [27] = experiment: Antibacterial activity against ESBLs negative Carbapenem-sensitive Klebsiella pneumoniae 17-18 assessed as reduction in bacterial growth in the presence of Avibactam; assay type: functional
# Escherichia coli [28] = experiment: Antibacterial activity against ESBLs negative Carbapenem-sensitive Escherichia coli 17-1 assessed as reduction in bacterial growth in the presence of Avibactam; assay type: functional
# Enterobacter cloacae [29] = experiment: Antibacterial activity against Enterobacter cloacae 17-8 assessed as reduction in bacterial growth in the presence of Avibactam; assay type: functional
# Klebsiella aerogenes [30] = experiment: Antibacterial activity against Enterobacter aerogenes 15-7 assessed as reduction in bacterial growth in the presence of Avibactam; assay type: functional
# Pseudomonas aeruginosa [31] = experiment: Antibacterial activity against Carbapenem- sensitive Pseudomonas aeruginosa 17-11 assessed as reduction in bacterial growth in the presence of Avibactam; assay type: functional
# Pseudomonas aeruginosa [32] = experiment: Antibacterial activity against Carbapenem- sensitive Pseudomonas aeruginosa 17-24 assessed as reduction in bacterial growth in the presence of Avibactam; assay type: functional
# Klebsiella pneumoniae [33] = experiment: Bactericidal activity against Carbapenem- resistant Klebsiella pneumoniae KR 15-7 assessed as reduction in bacterial growth; assay type: functional
# Pseudomonas aeruginosa [34] = experiment: Bactericidal activity against Carbapenem- resistant Pseudomonas aeruginosa 17-8 assessed as reduction in bacterial growth; assay type: functional
# Klebsiella pneumoniae [35] = experiment: Bactericidal activity against ESBLs positive Carbapenem-sensitive Klebsiella pneumoniae 17-2 assessed as reduction in bacterial growth; assay type: functional
# Escherichia coli [36] = experiment: Bactericidal activity against Escherichia coli NCTC 13353 assessed as reduction in bacterial growth; assay type: functional
# Acinetobacter baumannii [37] = experiment: Bactericidal activity against Acinetobacter baumannii NCTC 13304 assessed as reduction in bacterial growth; assay type: functional
# Pseudomonas aeruginosa [38] = experiment: Bactericidal activity against Pseudomonas aeruginosa ATCC 27853 assessed as reduction in bacterial growth; assay type: functional
# Klebsiella pneumoniae [39] = experiment: Bactericidal activity against ESBLs positive Carbapenem-sensitive Klebsiella pneumoniae 17-2 assessed as reduction in bacterial growth in the presence of avibactam; assay type: functional
# Enterobacter cloacae [40] = experiment: Bactericidal activity against Enterobacter cloacae 17-2 assessed as reduction in bacterial growth in the presence of avibactam; assay type: functional
# Enterobacter cloacae [41] = experiment: Bactericidal activity against Enterobacter cloacae 17-3 assessed as reduction in bacterial growth in the presence of avibactam; assay type: functional
# Enterobacter cloacae [42] = experiment: Bactericidal activity against Enterobacter cloacae 17-8 assessed as reduction in bacterial growth in the presence of avibactam; assay type: functional
# Klebsiella aerogenes [43] = experiment: Bactericidal activity against Enterobacter aerogenes 17-3 assessed as reduction in bacterial growth in the presence of avibactam; assay type: functional
# Pseudomonas aeruginosa [44] = experiment: Bactericidal activity against carbapenem-sensitive Pseudomonas aeruginosa 17-10 assessed as reduction in bacterial growth in the presence of avibactam; assay type: functional
# Escherichia coli [45] = experiment: Bactericidal activity against Escherichia coli ATCC 25922 assessed as reduction in bacterial growth in the presence of avibactam; assay type: functional
# Klebsiella aerogenes [46] = experiment: Antibacterial activity against Enterobacter aerogenes 15-3 assessed as reduction in bacterial growth
# Escherichia coli [47] = experiment: Antibacterial activity against ESBLs negative Carbapenem--sensitive Escherichia coli 17-20 assessed as reduction in bacterial growth
smiles,measurement,setting,value
Nc1nc(/C(=N/OCc2cc(=O)c(O)cn2O)C(=O)N[C@@H]2C(=O)N3C(C(=O)O)=CCS[C@H]23)cs1,MIC,Escherichia coli [1],64 µg/mL
same,MIC,Escherichia coli [2],> 64 µg/mL
same,MIC,Klebsiella pneumoniae [3],64 µg/mL
same,MIC,Klebsiella pneumoniae [4],> 64 µg/mL
same,MIC,Acinetobacter baumannii [5],> 64 µg/mL
same,MIC,Enterococcus faecalis,> 64 µg/mL
same,MIC,Escherichia coli [6],0.5 µg/mL
same,MIC,Klebsiella pneumoniae [7],64 µg/mL
same,MIC,Klebsiella pneumoniae [8],1 µg/mL
same,MIC,Acinetobacter baumannii [9],16 µg/mL
same,MIC,Escherichia coli [10],1 µg/mL
same,MIC,Escherichia coli [11],0.25 µg/mL
same,MIC,Pseudomonas aeruginosa [12],4 µg/mL
same,MIC,Acinetobacter baumannii [13],16 µg/mL
same,MIC,Acinetobacter baumannii [14],16 µg/mL
same,MIC,Acinetobacter baumannii [15],2 µg/mL
same,MIC,Klebsiella pneumoniae [16],4 µg/mL
same,MIC,Klebsiella pneumoniae [17],1 µg/mL
same,MIC,Klebsiella pneumoniae [18],4 µg/mL
same,MIC,Klebsiella pneumoniae [19],4 µg/mL
same,MIC,Klebsiella pneumoniae [20],2 µg/mL
same,MIC,Pseudomonas aeruginosa [21],16 µg/mL
same,MIC,Klebsiella pneumoniae [22],4 µg/mL
same,MIC,Klebsiella pneumoniae [23],0.25 µg/mL
same,MIC,Klebsiella pneumoniae [24],0.5 µg/mL
same,MIC,Klebsiella pneumoniae [25],0.5 µg/mL
same,MIC,Klebsiella pneumoniae [26],0.125 µg/mL
same,MIC,Klebsiella pneumoniae [27],0.06 µg/mL
same,MIC,Escherichia coli [28],0.25 µg/mL
same,MIC,Enterobacter cloacae [29],2 µg/mL
same,MIC,Klebsiella aerogenes [30],2 µg/mL
same,MIC,Pseudomonas aeruginosa [31],2 µg/mL
same,MIC,Pseudomonas aeruginosa [32],4 µg/mL
same,MBC,Klebsiella pneumoniae [33],> 64 µg/mL
same,MBC,Pseudomonas aeruginosa [34],64 µg/mL
same,MBC,Klebsiella pneumoniae [35],2 µg/mL
same,MBC,Escherichia coli [36],> 64 µg/mL
same,MBC,Acinetobacter baumannii [37],> 64 µg/mL
same,MBC,Pseudomonas aeruginosa [38],16 µg/mL
same,MBC,Klebsiella pneumoniae [39],0.125 µg/mL
same,MBC,Enterobacter cloacae [40],8 µg/mL
same,MBC,Enterobacter cloacae [41],8 µg/mL
same,MBC,Enterobacter cloacae [42],2 µg/mL
same,MBC,Klebsiella aerogenes [43],0.5 µg/mL
same,MBC,Pseudomonas aeruginosa [44],4 µg/mL
same,MBC,Escherichia coli [45],0.5 µg/mL
same,MIC,Klebsiella aerogenes [46],> 64 µg/mL
same,MIC,Escherichia coli [47],> 2 µg/mL
CC(C)(O/N=C(\C(=O)N[C@@H]1C(=O)N2C(C(=O)[O-])=C(C[n+]3ccccc3)CS[C@H]12)c1csc(N)n1)C(=O)O [CEFTAZIDIME],MIC,Escherichia coli [1],8 µg/mL
same,MIC,Escherichia coli [2],16 µg/mL
same,MIC,Klebsiella pneumoniae [3],32 µg/mL
same,MIC,Klebsiella pneumoniae [4],> 64 µg/mL
same,MIC,Acinetobacter baumannii [5],> 64 µg/mL
same,MIC,Enterococcus faecalis,> 64 µg/mL
same,MIC,Escherichia coli [6],0.5 µg/mL
same,MIC,Klebsiella pneumoniae [7],4 µg/mL
same,MIC,Klebsiella pneumoniae [8],2 µg/mL
same,MIC,Acinetobacter baumannii [9],8 µg/mL
same,MIC,Acinetobacter baumannii [13],8 µg/mL
same,MIC,Acinetobacter baumannii [14],8 µg/mL
same,MIC,Acinetobacter baumannii [15],2 µg/mL
same,MIC,Klebsiella pneumoniae [16],2 µg/mL
same,MIC,Klebsiella pneumoniae [17],2 µg/mL
same,MIC,Klebsiella pneumoniae [18],4 µg/mL
same,MIC,Klebsiella pneumoniae [19],4 µg/mL
same,MIC,Klebsiella pneumoniae [20],1 µg/mL
same,MIC,Pseudomonas aeruginosa [21],16 µg/mL
same,MIC,Klebsiella pneumoniae [22],2 µg/mL
same,MIC,Klebsiella pneumoniae [23],0.5 µg/mL
same,MIC,Klebsiella pneumoniae [24],0.5 µg/mL
same,MIC,Klebsiella pneumoniae [25],2 µg/mL
same,MIC,Klebsiella pneumoniae [26],1 µg/mL
same,MIC,Klebsiella pneumoniae [27],0.125 µg/mL
same,MIC,Escherichia coli [28],0.5 µg/mL
same,MIC,Enterobacter cloacae [29],0.125 µg/mL
same,MIC,Klebsiella aerogenes [30],1 µg/mL
same,MIC,Pseudomonas aeruginosa [31],0.5 µg/mL
same,MIC,Pseudomonas aeruginosa [32],2 µg/mL
same,MBC,Klebsiella pneumoniae [33],> 64 µg/mL
same,MBC,Pseudomonas aeruginosa [34],64 µg/mL
same,MBC,Klebsiella pneumoniae [35],4 µg/mL
same,MBC,Escherichia coli [36],> 64 µg/mL
same,MBC,Acinetobacter baumannii [37],> 64 µg/mL
same,MBC,Pseudomonas aeruginosa [38],1 µg/mL
same,MBC,Klebsiella pneumoniae [39],0.25 µg/mL
same,MBC,Enterobacter cloacae [40],1 µg/mL
same,MBC,Enterobacter cloacae [41],0.25 µg/mL
same,MBC,Enterobacter cloacae [42],1 µg/mL
same,MBC,Klebsiella aerogenes [43],0.25 µg/mL
same,MBC,Pseudomonas aeruginosa [44],0.5 µg/mL
same,MBC,Escherichia coli [45],1 µg/mL
same,MIC,Klebsiella aerogenes [46],> 64 µg/mL
same,MIC,Escherichia coli [47],> 2 µg/mL
C[C@@H](O)[C@H]1C(=O)N2C(C(=O)O)=C(S[C@@H]3CN[C@H](C(=O)N(C)C)C3)[C@H](C)[C@H]12 [MEROPENEM],MIC,Escherichia coli [10],< 0.03 µg/mL
same,MIC,Escherichia coli [11],< 0.03 µg/mL
same,MIC,Pseudomonas aeruginosa [12],0.25 µg/mL
